Assay results from patent US9724351B2, “Compounds for the treatment of paramoxyvirus viral infections” (priority 2012, dated 2017).

Columns and labels:
[1] = Cytotoxicity Determination; type: cell-based; settings: human, HEp-2 cells, without addition of virus, CCK-8 readout, bins (Table 4: greater than 100 μM; Table 5: equal to or less than 100 μM and greater than 10 μM), read-out: 50% cytotoxicity concentration (CC50)
Summary of the method: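 CC50 was derived from CCK-8 optical density after a 3-4 h reagent incubation. Before that, cells without virus had been treated for 5 days at 37 °C, 5% CO2 with compound at seven ½-step final concentrations from 100 μM, in duplicate wells.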

[2] = system: Respiratory Syncytial Virus (RSV) long strain (ATCC#VR-26); test: RSV Antiviral Assay (CPE reduction assay); type: cell-based; settings: human respiratory syncytial virus, 120 h; HEp-2 cells infected with RSV long strain, 5 days, CCK-8 readout; bins (Table 2: less than 1 μM; Table 3: equal to or higher than 1 μM and less than 50 μM); read-out: 50% effective concentration (EC50)
Summary of the method: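 Cytopathic-effect protection measured after 5 days at 37 °C, 5% CO2 via CCK-8 dehydrogenase readout at 450 nm (630 nm reference), EC50 regressed from mean O.D. Host HEp-2 cells received RSV long strain at 100 TCID50/well; compound 9-point ⅓ series starting 100 μM or 1 μM, 1% DMSO, duplicate wells.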

| Structure (SMILES) | CC50 at 5 days [1] | EC50 [2] |
| --- | --- | --- |
| COC(=O)c1cc(C(=O)CNC(=O)c2ccc(OCCO)c(OC)c2)nc(-c2csc3c(F)cccc23)c1 [Compound 1257] | > 100 µM | 1 to 50 µM |
| COc1ccc(C(=O)NCC(=O)c2cn(C)cc(-c3csc4c(F)cccc34)c2=O)cc1OC [Compound 1338] | 10 to 100 µM | 1 to 50 µM |
| COc1ccc(C(=O)NCC(=O)N/N=C/c2csc3c(Cl)cccc23)cc1OC [Compound 400-12] | 10 to 100 µM | 1 to 50 µM |
| COc1cc(C(=O)N[C@H](CCCCN)C(=O)c2ccc(OC)c(-c3csc4c(F)cccc34)n2)ccc1OCCO [Compound 1836] | 10 to 100 µM | 1 to 50 µM |
| COc1ccc(C(=O)NCC(O)c2ccnc(-c3csc4c(F)cccc34)n2)cc1OC (stereo not drawn) [Compound 839, N-(2-(2-(7-fluorobenzo[b]thiophen-3-yl)pyrimidin-4-yl)-2-hydroxyethyl)-3,4-dimethoxy-benzamide] | > 100 µM | 1 to 50 µM |
| COc1ccc(C(=O)NCC(=O)c2ccc(OC)c(-c3ccc(C(=O)N4CCCCC4)cc3)n2)cc1OC [Compound 1518] | 10 to 100 µM | 1 to 50 µM |
| CCCN(/N=C/c1csc2c(F)cccc12)C(=O)CNC(=O)c1ccc(OCCO)c(OC)c1 [Compound 2302] | 10 to 100 µM | < 1 µM |
| COc1cc(C(=O)NCC(=O)N(C)C(=O)N(C)c2csc3c(F)cccc23)ccc1OCCO [Compound 2803] | > 100 µM | 1 to 50 µM |
| COc1cc(C(=O)N[C@@H](C)C(=O)c2ccc(OC)c(-c3ccc(F)c(C(F)(F)F)c3)n2)ccc1OCCO [Compound 1812] | 10 to 100 µM | < 1 µM |
| COc1ccc(C(=O)NCC(=O)N/N=C/c2ccc3ccsc3c2)cc1OC [Compound 496] | 10 to 100 µM | 1 to 50 µM |
| CCCC/C(=N\NC(=O)CNC(=O)c1ccc(OC(C)C)c(OC)c1)c1csc2ccccc12 [Compound 476] | > 100 µM | < 1 µM |
| COc1ccc(C(=O)NCC(=O)c2cccc(-n3ncc4c(F)cccc43)n2)cc1OC [Compound 2601] | > 100 µM | 1 to 50 µM |
| COc1ccc(C(=O)NCC(=O)c2ccc3ccccc3n2)cc1OC [Compound 1701] | > 100 µM | 1 to 50 µM |
| COc1cc(C(=O)NCC(=O)c2ccc(OC)c(-c3ccc(F)c(Cl)c3)n2)ccc1OCC1CC1 [Compound 2638] | 10 to 100 µM | < 1 µM |
| COc1cc(C(=O)NCC(=O)c2ccc(OC)c(-c3ccc(F)c(Cl)c3)n2)ccc1OCCN(C)C [Compound 1314] | 10 to 100 µM | 1 to 50 µM |
| CCCC/C(=N\NC(=O)CNC(=O)c1ccc(OCC)c(OC)c1)c1csc2c(F)cccc12 [Compound 462A] | > 100 µM | < 1 µM |
| COc1cc(C(=O)NCC(=O)N2CCCC(c3csc4c(F)cccc34)=N2)ccc1OCCO [Compound 1101] | > 100 µM | < 1 µM |
| COc1ccc(C(=O)NCC(=O)N/N=C/c2cccc3ccccc23)cc1OC [Compound 402] | 10 to 100 µM | 1 to 50 µM |
| COc1cc(C(=O)NCC(=O)c2c[nH]c(-c3csc4c(F)cccc34)n2)ccc1OCCO [Compound 1240] | > 100 µM | 1 to 50 µM |

| Structure (SMILES) | CC50 at 5 days [1] | EC50 [2] |
| --- | --- | --- |
| CCOc1cc(C(=O)NCC(=O)N/N=C(\C)c2csc3ccccc23)ccc1N(CC)CC [Compound 509] | 10 to 100 µM | 1 to 50 µM |
| COc1cc(C(=O)N[C@H](CO)C(=O)c2ccc(OC)c(-c3ccc(F)c(Cl)c3)n2)ccc1OCCO [Compound 1831] | 10 to 100 µM | < 1 µM |
| CCOc1ccc(C(=O)NCC(=O)Nc2nc3cc(Cl)ccc3n2CCOC)cc1OC [Compound 911] | 10 to 100 µM | 1 to 50 µM |
| COc1cc(C(=O)NCC(=O)c2ccc(OC)c(-c3ccc(Cl)c(Cl)c3)n2)ccc1OCCF [Compound 2627] | > 100 µM | < 1 µM |
| COc1ccc(C(=O)N(C)N(C)C(=O)c2cccc(-c3csc4c(F)cccc34)n2)cc1OC [Compound 3103] | 10 to 100 µM | 1 to 50 µM |
| COc1cc(C(=O)NCC(=O)c2cccc(-c3csc4c(F)cccc34)n2)ccc1OCC(N)=O [Compound 1247] | 10 to 100 µM | < 1 µM |
| COc1cc(C(=O)NCC(=O)c2ccc(OC)c(-c3ccc(F)cc3)n2)ccc1OCCO [Compound 1608] | 10 to 100 µM | < 1 µM |
| COc1cc(C(=O)NCC(=O)c2ccc(OC)c(-c3ccnc(F)c3)n2)ccc1OCCO [Compound 1610] | > 100 µM | 1 to 50 µM |
| COc1ccc(C(=O)N(C)NC(=O)c2cccc(-c3csc4c(F)cccc34)n2)cc1OC [Compound 3101] | 10 to 100 µM | 1 to 50 µM |
| COc1cc(C(=O)CNC(=O)c2ccc(OC)c(OC)c2)nc(-c2ccc3c(c2)OCCO3)c1 [Compound 1402] | > 100 µM | 1 to 50 µM |
| CCN(C)c1ccc(C(=O)NCC(=O)N/N=C(\C)c2csc3ccccc23)cc1OC [Compound 512] | 10 to 100 µM | 1 to 50 µM |
| COc1ccc(C(=O)NCC(=O)N/N=C(\CO)c2csc3ccccc23)cc1OC [Compound 442] | > 100 µM | 1 to 50 µM |
| COc1ccc(C(=O)NC(C)(C)C(=O)c2cccc(-c3csc4c(F)cccc34)n2)cc1OC [Compound 1340] | > 100 µM | 1 to 50 µM |
| COc1ccc(C(=O)NCC(=O)c2ccc(OC)c(-c3ccc(C(F)(F)F)cc3)n2)cc1OC [Compound 1531] | > 100 µM | < 1 µM |
| CCCc1cc(C(=O)CNC(=O)c2ccc(OC)c(OC)c2)nc(-c2csc3c(F)cccc23)c1 [Compound 1244] | 10 to 100 µM | < 1 µM |
| COc1cc(C(=O)NCC(=O)N(C)/N=C(\C)c2csc3c(F)cccc23)ccc1OCCO [Compound 651] | > 100 µM | < 1 µM |
| COc1cc(C(=O)NCC(=O)c2ccc(OC)c(-c3ccc(F)c(C(F)F)c3)n2)ccc1OCCO [Compound 1327] | > 100 µM | < 1 µM |
| COc1ccc(C(=O)NCC(=O)c2ccc(OC)c(-c3ccc4scnc4c3)n2)cc1OC [Compound 1539] | > 100 µM | 1 to 50 µM |
| COc1cc(C(=O)NCC(=O)c2cccc(-c3csc4c(F)cccc34)n2)ccc1OC1CNC1 [Compound 1251] | > 100 µM | 1 to 50 µM |

| Structure (SMILES) | CC50 at 5 days [1] | EC50 [2] |
| --- | --- | --- |
| CCc1cc(C(=O)CNC(=O)c2ccc(OCCO)c(OC)c2)nc(-c2csc3c(F)cccc23)c1 [Compound 1250] | > 100 µM | < 1 µM |
| COc1cc(C(=O)N[C@@H](CCO)C(=O)c2ccc(OC)c(-c3ccc(F)c(C(F)(F)F)c3)n2)ccc1OCCO [Compound 1807] | > 100 µM | < 1 µM |
| COc1cc(C(=O)NCC(=O)N/N=C(\CC2CCCCC2)c2csc3c(F)cccc23)ccc1OCCO [Compound 605] | 10 to 100 µM | < 1 µM |
| COc1ccc(C(=O)NCC(=O)N/N=C(/C)c2c(OC)sc3ccccc23)cc1OC [Compound 400-14] | > 100 µM | 1 to 50 µM |
| COc1ccc(C(=O)NC(C)C(=O)c2ccc(OC)c(-c3csc4c(F)cccc34)n2)cc1OC (stereo not drawn) [Compound 1824] | > 100 µM | < 1 µM |
| COc1cc(C(=O)CNC(=O)c2ccc(OC)c(OC)c2)nc(-c2ccc(O)cc2)c1 [Compound 1401] | 10 to 100 µM | 1 to 50 µM |
| COc1cc(C(=O)NCC(=O)c2ccc(OC)c(-c3ccc(F)c(Br)c3)n2)ccc1OCCO [Compound 1622] | > 100 µM | < 1 µM |
| COc1ccc(C(=O)CNC(=O)c2cc(C)on2)nc1-c1ccc(F)c(Cl)c1 [Compound 4202] | > 100 µM | 1 to 50 µM |
| COc1ccc(C(=O)NCC(=O)c2ccc(OC)c(-c3ccnc(F)c3)n2)cc1OC [Compound 1535] | > 100 µM | 1 to 50 µM |
| COc1cc(C(=O)NCC(=O)c2ccc(OC)c(-c3csc4ccc(C#N)cc34)n2)ccc1OCCO [Compound 1620] | 10 to 100 µM | 1 to 50 µM |
| COc1cc(C(=O)NCC(=O)c2ccc(OC)c(-c3ccc(F)c(Cl)c3)n2)ccc1OCCF [Compound 2648] | > 100 µM | < 1 µM |
| COCCc1ccc(C(=O)NCC(=O)c2ccc(OC)c(-c3ccc(F)c(Br)c3)n2)cc1OC [Compound 1334] | 10 to 100 µM | < 1 µM |
| COc1cc(C(=O)NCC(=O)c2ccc(OC)c(-c3ccc(F)c(Br)c3)n2)ccc1OCc1ncn[nH]1 [Compound 3903] | > 100 µM | < 1 µM |
| COC/C(=N\NC(=O)CNC(=O)c1ccc(OC)c(OC)c1)c1csc2ccccc12 [Compound 443] | > 100 µM | 1 to 50 µM |
| C/C=C\c1cc(C(=O)CNC(=O)c2ccc(OC)c(OC)c2)nc(-c2csc3c(F)cccc23)c1 [Compound 1243] | > 100 µM | 1 to 50 µM |
| COc1ccc(C(=O)NCC(=O)N/N=C(/c2csc3ccccc23)C(F)F)cc1OC [Compound 445] | > 100 µM | 1 to 50 µM |
| CCOc1ccc(C(=O)NCC(=O)N/N=C/c2csc3c(F)cccc23)cc1OC [Compound 400-26] | > 100 µM | < 1 µM |
| COc1ccc(C(=O)NCC(=O)N/N=C(/CC2CC2)c2csc3ccccc23)cc1OC [Compound 400-5] | > 100 µM | 1 to 50 µM |
| COc1ccc(C(=O)NCC(=O)c2ccnc(-c3csc4c(F)cccc34)n2)cc1OC [Compound 840] | > 100 µM | 1 to 50 µM |
